Measured values from article PMC4990478 (Nature chemical biology, 2016).
Values belong to the compound of their own block, whether it stands above or below them. Where a SMILES comes first, the peptide text is derived from it. [ ]: non-standard residue; d: D form. The star is where a group is joined. ξ: configuration not given here. Aoe(9ξ) = N[C@@H](CCCCCC(=O)C1CO1)C(=O)O; AMC = Cc1cc(=O)oc2cc(N*)ccc12; dPip = O=C(O)[C@H]1CCCCN1

What was measured:
HD1-A (a class II HDAC) = details: cited from earlier work
[1] = system: maize HD1-B (a class I HDAC); details: cited from earlier work
zCD1 = biological target: T1, zCD1 (Danio rerio, UniProt F8W4B7); test: Steady-state kinetics, fluorogenic substrates; assay type: biochemical
T1 sequence (F8W4B7 60-419): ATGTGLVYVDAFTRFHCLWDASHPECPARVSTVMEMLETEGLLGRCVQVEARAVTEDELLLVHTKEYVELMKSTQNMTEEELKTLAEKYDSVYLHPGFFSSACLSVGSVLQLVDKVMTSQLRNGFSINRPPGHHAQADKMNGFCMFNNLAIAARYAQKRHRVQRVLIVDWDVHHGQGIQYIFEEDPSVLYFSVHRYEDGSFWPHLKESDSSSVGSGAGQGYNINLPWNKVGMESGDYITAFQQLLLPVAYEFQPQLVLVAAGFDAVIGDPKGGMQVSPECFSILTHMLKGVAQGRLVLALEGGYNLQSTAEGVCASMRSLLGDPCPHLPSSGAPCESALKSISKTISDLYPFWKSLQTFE

HDAC6 = details: cited from earlier work
HDAC1 = details: cited from earlier work

Compound: C[C@@H]1NC(=O)[C@H]2CCCN2C(=O)[C@H](CCCCCC(=O)[C@@H]2CO2)NC(=O)[C@@H](C)NC1=O [HC toxin, cyclo-(L-Ala-D-Ala-L-Aoe-D-Pro)]
mode of inhibition (HD1-A (a class II HDAC)): reversible inhibition | mode of inhibition [1]: irreversible inhibition

kcat/KM reduced, zCD1 compared with zCD2 (zCD1): 7 fold
Compound: CC(=O)NCCCC[C@H](NC(=O)CNC(=O)[C@H](CCCNC(=N)N)NC(C)=O)C(=O)Nc1ccc2c(C)cc(=O)oc2c1 [Substrate 8, Ac-Arg-Gly-Lys(Ac)-AMC] (Ac-Arg-Gly-Lys(Ac)-{AMC})

Compound: O=C(CCCCC[C@@H]1NC(=O)[C@H]2CCCCN2C(=O)[C@H](Cc2ccccc2)NC(=O)[C@H](Cc2ccccc2)NC1=O)C1CO1 (some centres unmarked) [trapoxin] (cyclo(FF[dPip][Aoe(9ξ)]))
mode of inhibition (HDAC6): reversible inhibitor | mode of inhibition (HDAC1): potent irreversible inhibitor
